Laboratory results from PubChem BioAssay AID256 (DTP/NCI, 2004).
Where “and” joins values, the source holds several entries; their conditions need not be identical. Equal values may be shown once. Toxic doses and inconclusive results are not listed.

System: CD2F1 mice, L1210 leukemia ip, survival T/C
Test: NCI In Vivo Anticancer Drug Screen. Data for tumor model L1210 Leukemia (intraperitoneal) in CD2F1 (CDF1) mice
Details: higher = longer survival
Procedure: The antitumor activity of compounds was measured in mice bearing transplantable tumors. Survival or tumor size were measured and the results are expressed as the measurement made in the treated group (T) divided by the measurement made in the vehicle treated control group (C). The tumor model used in this assay is L1210 Leukemia (intraperitoneal) in CD2F1 (CDF1) mice

[1] = endpoint: mean survival time, dose: 100.0 mg/kg/injection, schedule: Q01DX001 (ip), vehicle: saline with Tween-80
[2] = endpoint: mean survival time, dose: 100.0 mg/kg/injection, schedule: Q04DX002 (ip), vehicle: saline with Tween-80
[3] = endpoint: mean survival time, dose: 200.0 mg/kg/injection, schedule: Q04DX002 (ip), vehicle: saline with Tween-80
[4] = endpoint: mean survival time, dose: 400.0 mg/kg/injection, schedule: Q04DX002 (ip), vehicle: saline with Tween-80
[5] = endpoint: mean survival time, dose: 50.0 mg/kg/injection, schedule: Q01DX009 (ip), vehicle: saline with Tween-80
[6] = endpoint: mean survival time, dose: 100.0 mg/kg/injection, schedule: Q01DX009 (ip), vehicle: saline with Tween-80
[7] = endpoint: mean survival time, dose: 200.0 mg/kg/injection, schedule: Q01DX009 (ip), vehicle: saline with Tween-80
[8] = endpoint: mean survival time, dose: 100.0 mg/kg/injection, schedule: Q04DX003 (ip), vehicle: saline with Tween-80
[9] = endpoint: mean survival time, dose: 200.0 mg/kg/injection, schedule: Q04DX003 (ip), vehicle: saline with Tween-80
[10] = endpoint: mean survival time, dose: 400.0 mg/kg/injection, schedule: Q01DX009 (ip), vehicle: saline with Tween-80
[11] = endpoint: mean survival time, dose: 400.0 mg/kg/injection, schedule: Q04DX003 (ip), vehicle: saline with Tween-80
[12] = endpoint: mean survival time, dose: 100.0 mg/kg/injection, schedule: Q04DX003 (ip), vehicle: other
[13] = endpoint: mean survival time, dose: 200.0 mg/kg/injection, schedule: Q04DX003 (ip), vehicle: other
[14] = endpoint: mean survival time, dose: 400.0 mg/kg/injection, schedule: Q04DX003 (ip), vehicle: other
[15] = endpoint: mean survival time, dose: 25.0 mg/kg/injection, schedule: Q01DX009 (ip), vehicle: saline with Tween-80

O=NN(CCCl)C(=O)NC1CCN(Cc2ccccc2)CC1
T/C (endpoint: mean survival time, dose: 12.5 mg/kg/injection, schedule: Q01DX001 (ip), vehicle: saline with Tween-80): 123 % of control
T/C (endpoint: mean survival time, dose: 50.0 mg/kg/injection, schedule: Q01DX001 (ip), vehicle: saline with Tween-80): 271 % of control
T/C [1]: 379 % of control

O=C(Nc1cccc(C(F)(F)F)c1)c1ccc(Cl)cc1
T/C [2]: 97 % of control
T/C [3]: 105 % of control
T/C [4]: 105 % of control

Cc1ccc(NC(=O)OCCOc2ccc(-c3ccccc3)cc2)cc1[N+](=O)[O-]
T/C [5]: 98 % of control
T/C [6]: 98 % of control
T/C [7]: 94 % of control

CC(=O)CC(=O)C1CCC(C(=O)CC(C)=O)CC1 (centres undefined)
T/C [8]: 95 % of control
T/C [9]: 91 % of control

NC(N)=N/N=C/c1c(O)ccc2ccccc12
T/C (endpoint: mean survival time, dose: 31.25 mg/kg/injection, schedule: Q01DX010 (oral), vehicle: saline): 102 % of control
T/C (endpoint: mean survival time, dose: 62.5 mg/kg/injection, schedule: Q01DX010 (oral), vehicle: saline): 108 % of control
T/C (endpoint: mean survival time, dose: 125.0 mg/kg/injection, schedule: Q01DX010 (oral), vehicle: saline): 101 % of control

C[CH2][Pb]([CH2]C)([CH2]C)[O]C(=O)COc1ccccc1
T/C (endpoint: mean survival time, dose: 1.5 mg/kg/injection, schedule: Q04DX003 (ip), vehicle: Klucel (hydroxypropylcellulose) (HPC)): 104 % of control
T/C (endpoint: mean survival time, dose: 3.0 mg/kg/injection, schedule: Q04DX003 (ip), vehicle: Klucel (hydroxypropylcellulose) (HPC)): 97 % of control
T/C (endpoint: mean survival time, dose: 6.0 mg/kg/injection, schedule: Q04DX003 (ip), vehicle: Klucel (hydroxypropylcellulose) (HPC)): 100 % of control
T/C (endpoint: mean survival time, dose: 12.0 mg/kg/injection, schedule: Q04DX003 (ip), vehicle: Klucel (hydroxypropylcellulose) (HPC)): 104 % of control
T/C (endpoint: mean survival time, dose: 24.0 mg/kg/injection, schedule: Q04DX003 (ip), vehicle: Klucel (hydroxypropylcellulose) (HPC)): 86 % of control

COc1ccc(OC)c(NC(=O)Nc2cc([N+](=O)[O-])ccc2Cl)c1
T/C [1]: 91 % of control
T/C [6]: 93 % of control and 95 % of control
T/C [2]: 92 % of control and 95 % of control
T/C [8]: 101 % of control
T/C (endpoint: mean survival time, dose: 200.0 mg/kg/injection, schedule: Q01DX001 (ip), vehicle: saline with Tween-80): 88 % of control
T/C [7]: 115 % of control and 98 % of control
T/C [3]: 91 % of control and 96 % of control
T/C [9]: 96 % of control
T/C [10]: 100 % of control and 101 % of control
T/C [4]: 96 % of control and 104 % of control
T/C [11]: 96 % of control

CC(C)N=C1C([O-])=N[N+](C)(C)N1C(C)C
T/C [6]: 106 % of control
T/C (endpoint: mean survival time, dose: 100.0 mg/kg/injection, schedule: Q04DX003 (ip), vehicle: saline): 95 % of control
T/C [7]: 93 % of control
T/C (endpoint: mean survival time, dose: 200.0 mg/kg/injection, schedule: Q04DX003 (ip), vehicle: saline): 98 % of control
T/C [10]: 98 % of control
T/C (endpoint: mean survival time, dose: 400.0 mg/kg/injection, schedule: Q04DX003 (ip), vehicle: saline): 110 % of control

CCOc1ccc(OCC)c(NC(=O)Nc2ccccc2Cl)c1
T/C (endpoint: mean survival time, dose: 25.0 mg/kg/injection, schedule: Q04DX002 (ip), vehicle: saline with Tween-80): 94 % of control
T/C (endpoint: mean survival time, dose: 50.0 mg/kg/injection, schedule: Q04DX002 (ip), vehicle: saline with Tween-80): 94 % of control
T/C [2]: 90 % of control

O=C(CNC(=O)Nc1cccc(C(F)(F)F)c1)N/N=C/c1cccs1
T/C [5]: 88 % of control
T/C [6]: 96 % of control
T/C [7]: 92 % of control

CC1=CCC(c2ccccc2)NC(=O)C1 (centres undefined)
T/C [2]: 96 % of control
T/C [3]: 104 % of control
T/C [4]: 104 % of control

O[Si](c1ccccc1)(c1ccccc1)c1ccccc1
T/C [8]: 102 % of control
T/C [9]: 97 % of control
T/C [11]: 92 % of control

C1=CC2OC1c1ccccc12
T/C [12]: 93 % of control
T/C [13]: 98 % of control
T/C [14]: 93 % of control

CCC(NC(N)=O)C(CC)NC(N)=O (centres undefined)
T/C (endpoint: median survival time, dose: 12.5 mg/kg/injection, schedule: Q01DX009 (ip), vehicle: saline with Tween-80): 97 % of control
T/C (endpoint: median survival time, dose: 25.0 mg/kg/injection, schedule: Q01DX009 (ip), vehicle: saline with Tween-80): 96 % of control
T/C (endpoint: median survival time, dose: 50.0 mg/kg/injection, schedule: Q01DX009 (ip), vehicle: saline with Tween-80): 90 % of control

Cc1c(C#N)sc2ccccc12
T/C (endpoint: mean survival time, dose: 50.0 mg/kg/injection, schedule: Q01DX009 (ip), vehicle: other): 112 % of control
T/C (endpoint: mean survival time, dose: 100.0 mg/kg/injection, schedule: Q01DX009 (ip), vehicle: other): 95 % of control
T/C [12]: 109 % of control
T/C [13]: 92 % of control

CCCNc1ccc(S(=O)(=O)c2ccc(N)cc2)cc1
T/C [15]: 95 % of control
T/C [5]: 95 % of control
T/C [6]: 89 % of control

O=P([O-])([O-])O.O=P([O-])([O-])O.O=P([O-])([O-])O.O=P([O-])([O-])O.[Na+].[OH3+].[OH3+].[Pt+2].[Pt+2]
T/C (endpoint: median survival time, dose: 10.0 mg/kg/injection, schedule: Q04DX003 (ip), vehicle: water): 102 % of control
T/C (endpoint: median survival time, dose: 20.0 mg/kg/injection, schedule: Q04DX003 (ip), vehicle: water): 91 % of control
T/C (endpoint: median survival time, dose: 30.75 mg/kg/injection, schedule: Q04DX003 (ip), vehicle: water): 103 % of control
T/C (endpoint: median survival time, dose: 40.0 mg/kg/injection, schedule: Q04DX003 (ip), vehicle: water): 98 % of control
T/C (endpoint: median survival time, dose: 61.5 mg/kg/injection, schedule: Q04DX003 (ip), vehicle: water): 102 % of control
T/C (endpoint: median survival time, dose: 80.0 mg/kg/injection, schedule: Q04DX003 (ip), vehicle: water): 94 % of control
T/C (endpoint: median survival time, dose: 123.0 mg/kg/injection, schedule: Q04DX003 (ip), vehicle: water): 104 % of control
T/C (endpoint: median survival time, dose: 246.0 mg/kg/injection, schedule: Q04DX003 (ip), vehicle: water): 110 % of control

O=C(Nc1cc(C(F)(F)F)ccc1Cl)c1cccc(C(=O)Nc2cc(C(F)(F)F)ccc2Cl)c1
T/C (endpoint: mean survival time, dose: 12.5 mg/kg/injection, schedule: Q01DX009 (ip), vehicle: saline with Tween-80): 86 % of control
T/C [15]: 90 % of control
T/C [5]: 92 % of control

C/C(=N\N=C(/[Se])N1CC2CCC(CC2)C1)c1ccccn1
T/C (endpoint: median survival time, dose: 0.75 mg/kg/injection, schedule: Q01DX009 (ip), vehicle: Klucel (hydroxypropylcellulose) (HPC)): 101 % of control
T/C (endpoint: median survival time, dose: 1.5 mg/kg/injection, schedule: Q01DX009 (ip), vehicle: Klucel (hydroxypropylcellulose) (HPC)): 103 % of control
T/C (endpoint: median survival time, dose: 1.56 mg/kg/injection, schedule: Q01DX009 (ip), vehicle: Klucel (hydroxypropylcellulose) (HPC)): 93 % of control and 101 % of control
T/C (endpoint: median survival time, dose: 3.0 mg/kg/injection, schedule: Q01DX009 (ip), vehicle: Klucel (hydroxypropylcellulose) (HPC)): 102 % of control
T/C (endpoint: median survival time, dose: 3.12 mg/kg/injection, schedule: Q01DX009 (ip), vehicle: Klucel (hydroxypropylcellulose) (HPC)): 97 % of control and 110 % of control
T/C (endpoint: median survival time, dose: 6.0 mg/kg/injection, schedule: Q01DX009 (ip), vehicle: Klucel (hydroxypropylcellulose) (HPC)): 104 % of control
T/C (endpoint: median survival time, dose: 6.25 mg/kg/injection, schedule: Q01DX009 (ip), vehicle: Klucel (hydroxypropylcellulose) (HPC)): 86 % of control
T/C (endpoint: median survival time, dose: 12.0 mg/kg/injection, schedule: Q01DX009 (ip), vehicle: Klucel (hydroxypropylcellulose) (HPC)): 102 % of control
T/C (endpoint: median survival time, dose: 12.5 mg/kg/injection, schedule: Q01DX009 (ip), vehicle: Klucel (hydroxypropylcellulose) (HPC)): 109 % of control
T/C (endpoint: median survival time, dose: 25.0 mg/kg/injection, schedule: Q01DX009 (ip), vehicle: Klucel (hydroxypropylcellulose) (HPC)): 89 % of control

Nc1ccc(OCC(O)CN2CCN(c3ccccc3)CC2)cc1 (centres undefined)
T/C [2]: 94 % of control
T/C [3]: 107 % of control

Cc1cc(C)cc(OC(=O)/C=C/C(=O)Oc2cc(C)cc(C)c2)c1
T/C [8]: 100 % of control
T/C [9]: 95 % of control
T/C [11]: 96 % of control

COc1cccc2c1C(=O)c1c(O)c3c(c(O)c1C2=O)C[C@](O)(C(=O)CO)CC3OC1CC(N)C(OC2CCCCO2)C(C)O1 (some centres undefined)
T/C (endpoint: median survival time, dose: 3.0 mg/kg/injection, schedule: Q01DX009 (ip), vehicle: water): 123 % of control and 227 % of control
T/C (endpoint: median survival time, dose: 6.0 mg/kg/injection, schedule: Q01DX009 (ip), vehicle: water): 91 % of control

Cc1ccc(N/N=C/C(=O)O)cc1
T/C (endpoint: mean survival time, dose: 12.5 mg/kg/injection, schedule: Q04DX003 (ip), vehicle: other): 101 % of control
T/C (endpoint: mean survival time, dose: 25.0 mg/kg/injection, schedule: Q04DX003 (ip), vehicle: other): 101 % of control
T/C (endpoint: mean survival time, dose: 50.0 mg/kg/injection, schedule: Q04DX003 (ip), vehicle: other): 97 % of control
T/C [12]: 95 % of control
T/C [14]: 94 % of control
